Results taken from patent US12605464B2, “Cyclohexane lipidoids for nucleic acid transfection and use thereof” (USTAV ORGANICKE CHEMIE A BIOCHEMIE AV CR V.V.I., priority 2021, dated 2026).

How the values were obtained:
HEK293T = experiment: Cellular toxicity of LNPs, CellTiterGlo 2.0 cell viability assay; type: cell-based, human; conditions: 100 μM total lipid components, 24 hours, normalized to non-transfected cells
Description: (§1) A human cell line derived from embryonic kidney cells expressing SV40 large T antigen (HEK293T), and human hepatocyte carcinoma cell line (HepG2) were cultured in 96-well plates (5×10^4 cells in […] of culture medium per well) in Dulbecco's modified medium (DMEM) supplemented with 10% foetal bovine serum (FBS) at 37° C. in 5% CO2. Cells were transfected with 2 μl of LNPs B07-B12 generated in triplicates in Example 20 (the final total concentration of all lipid components in the well was 20 μM) or 10 μl of LNPs (the final total concentration of all lipid components in the well was 100 μM) and subsequently incubated for 24 hours. The cytotoxicity of LNPs was analyzed in a CellTiterGlo 2.0 cell viability assay (Promega, USA). Cell viability was normalized to non-transfected cells (control).

HepG2 = experiment: as above; type: cell-based, human; conditions: HepG2, 100 μM total lipid components, 24 hours, normalized to non-transfected cells
Description: as §1

CCCCCCCCCCCCN(CCCCCCCCCCCC)CCCNC(=O)c1cc(C(=O)NCCCN(CCCCCCCCCCCC)CCCCCCCCCCCC)cc(C(=O)NCCCN(CCCCCCCCCCCC)CCCCCCCCCCCC)c1 [TT3]
Cytotoxicity expressed as cell viability (%) (HEK293T): 27% | Cytotoxicity expressed as cell viability (%) (HepG2): 15%
